Values of other authors in patent US10538548B2, “Material mixture containing rubusoside or alpha glycosylrubusoside, for enhancing sweet taste” (SYMRISE AG, priority 2014, dated 2020).

Conditions: pure rubusoside

C=C1C[C@@]23CC[C@H]4[C@@](C)(CCC[C@@]4(C)C(=O)O[C@@H]4O[C@H](CO)[C@@H](O)[C@H](O)[C@H]4O)[C@@H]2CC[C@]1(O[C@@H]1O[C@H](CO)[C@@H](O)[C@H](O)[C@H]1O)C3 [rubusoside, Rubusoside]
sweetening power relative to sugar: 200 times
